According to ChEMBL document CHEMBL5506000, “Design, synthesis and antibacterial evaluation of low toxicity amphiphilic-cephalosporin derivatives” (Eur J Med Chem, 2024):
Values after ≈ are worked out from the molar mass of the structure shown. Active and inactive are the calls of the source. The calls are words filed in the database; no cut-off is given here.

Assays:
Staphylococcus aureus [1] = experiment: Post-antibiotic effect against Staphylococcus aureus at 1 times of MIC incubated for 1 hrs; format: functional
[2] = Hemolytic activity in sheep RBC; format: toxicity, cell-based, Ovis aries, Erythrocyte; settings: sheep red blood cells (erythrocytes)
Cell membrane [3] = experiment: Induction of cell membrane depolarization in Staphylococcus aureus assessed as increase in fluorescence intensity at 16 microg/ml by DiSC3(5) dye based assay; format: cell membranes; settings: dose 16.0 µg/ml
Staphylococcus aureus [4] = experiment: Post-antibiotic effect against Staphylococcus aureus at 4 times of MIC incubated for 1 hrs; format: functional
Staphylococcus aureus [5] = experiment: Antibacterial activity against early exponential growth phase Staphylococcus aureus assessed as reduction in bacterial colony at 8 times of MIC measured at 8 to 24 hrs by time-kill kinetics assay; format: functional, organism-based; settings: time 8-24 hrs
Enterococcus faecalis = experiment: Antibacterial activity against Enterococcus faecalis ATCC 29212 by CLSI protocol based assay; format: functional
Staphylococcus aureus [6] = experiment: Antibacterial activity against Staphylococcus aureus measured after 3 to 6 hrs in presence of 50% plasma; format: functional, organism-based; settings: time 3-6 hrs
Staphylococcus aureus [7] = experiment: Antibacterial activity against Staphylococcus aureus ATCC 29213 by CLSI protocol based assay; format: functional
[8] = tested on: Stenotrophomonas maltophilia; experiment: Antibacterial activity against Stenotrophomonas maltophilia ATCC 17808 by CLSI protocol based assay; format: functional
Escherichia coli = experiment: Antibacterial activity against Escherichia coli ATCC 25922 by CLSI protocol based assay; format: functional
[9] = Hemolytic activity in sheep RBC assessed as hemolysis rate at 1280 microg/ml relative to control; format: toxicity, cell-based, Ovis aries, Erythrocyte; settings: sheep red blood cells (erythrocytes), dose 1280 µg/ml, read-out: Activity
Cell membrane [10] = experiment: Induction of inner membrane permeabilization in Staphylococcus aureus assessed as increase in fluorescence intensity at 16 microg/ml by PI staining based analysis; format: cell membranes; settings: dose 16.0 µg/ml
Cell membrane [11] = experiment: Induction of cell membrane damage in Staphylococcus aureus assessed as increase in protein leakage; format: cell membranes
Staphylococcus aureus [12] = experiment: Antibacterial activity against Staphylococcus aureus assessed as inhibition of metabolic activity at MIC; format: functional
Staphylococcus aureus [13] = experiment: Antibacterial activity against Staphylococcus aureus assessed as reduction in metabolic activity at sub-MIC; format: functional, organism-based
Staphylococcus aureus [14] = experiment: Antibacterial activity against methicillin resistant Staphylococcus aureus clinical isolates assessed as 50% inhibition of bacterial growth; format: functional

CN[C@H](CC(C)C)C(=O)N[C@H]1C(=O)N[C@@H](CC(N)=O)C(=O)N[C@H]2C(=O)N[C@H]3C(=O)N[C@H](C(=O)N[C@H](C(=O)O)c4cc(O)cc(O)c4-c4cc3ccc4O)[C@H](O)c3ccc(c(Cl)c3)Oc3cc2cc(c3O[C@@H]2O[C@H](CO)[C@@H](O)[C@H](O)[C@H]2O[C@H]2C[C@](C)(N)[C@H](O)[C@H](C)O2)Oc2ccc(cc2Cl)[C@H]1O [VANCOMYCIN]
PAE (Staphylococcus aureus [1]): 0.67 h
HC50 [2]: > 1280 µg/mL
Activity (Cell membrane [3]): inactive
PAE (Staphylococcus aureus [4]): 1.37 h
Activity (Staphylococcus aureus [5]): Active
MIC (Enterococcus faecalis): 2 µg/mL (≈ 1.38 µM)
Activity (Staphylococcus aureus [6]): Active

CCCCCCCCCCNC(=O)c1ccc[n+](CC2=C(C(=O)[O-])N3C(=O)[C@@H](NC(=O)/C(=N\OC(C)(C)C(=O)O)c4csc(N)n4)[C@H]3SC2)c1.O=C(O)C(F)(F)F
HC50 [2]: > 1280 µg/mL
MIC (Staphylococcus aureus [7]): 32 µg/mL
MIC [8]: 64 µg/mL
MIC (Escherichia coli): 32 µg/mL
MIC (Enterococcus faecalis): 128 µg/mL

CCCCCCCCCCNC(=O)c1cc[n+](CC2=C(C(=O)[O-])N3C(=O)[C@@H](NC(=O)/C(=N\OC)c4csc(N)n4)[C@H]3SC2)cc1.O=C(O)C(F)(F)F
HC50 [2]: > 1280 µg/mL
MIC (Staphylococcus aureus [7]): 1 µg/mL
MIC [8]: 8 µg/mL
MIC (Escherichia coli): 8 µg/mL
MIC (Enterococcus faecalis): 4 µg/mL

CCCCCCCCNC(=O)c1cc[n+](CC2=C(C(=O)[O-])N3C(=O)[C@@H](NC(=O)/C(=N\OC(C)(C)C(=O)O)c4csc(N)n4)[C@H]3SC2)cc1.O=C(O)C(F)(F)F
HC50 [2]: > 1280 µg/mL
MIC (Staphylococcus aureus [7]): 32 µg/mL
MIC [8]: 64 µg/mL
MIC (Escherichia coli): 32 µg/mL
MIC (Enterococcus faecalis): > 128 µg/mL

CCCCNC(=O)c1cc[n+](CC2=C(C(=O)[O-])N3C(=O)[C@@H](NC(=O)/C(=N\OC(C)(C)C(=O)O)c4csc(N)n4)[C@H]3SC2)cc1.O=C(O)C(F)(F)F
HC50 [2]: > 1280 µg/mL
MIC (Staphylococcus aureus [7]): 64 µg/mL
MIC [8]: 1 µg/mL
MIC (Escherichia coli): 4 µg/mL
MIC (Enterococcus faecalis): 128 µg/mL

CCCCCCNC(=O)c1ccc[n+](CC2=C(C(=O)[O-])N3C(=O)[C@@H](NC(=O)/C(=N\OC(C)(C)C(=O)O)c4csc(N)n4)[C@H]3SC2)c1.O=C(O)C(F)(F)F
HC50 [2]: > 1280 µg/mL
MIC (Staphylococcus aureus [7]): 32 µg/mL
MIC [8]: 4 µg/mL
MIC (Escherichia coli): 4 µg/mL
MIC (Enterococcus faecalis): 128 µg/mL

CCCCCCCCNC(=O)c1cc[n+](CC2=C(C(=O)O)N3C(=O)[C@@H](NC(=O)/C(=N\OC)c4csc(N)n4)[C@H]3SC2)cc1.O=C([O-])C(F)(F)F
HC50 [2]: > 1280 µg/mL
MIC (Staphylococcus aureus [7]): 1 µg/mL
MIC [8]: 4 µg/mL
MIC (Escherichia coli): 8 µg/mL
MIC (Enterococcus faecalis): 2 µg/mL

CCCCCCNC(=O)c1cc[n+](CC2=C(C(=O)[O-])N3C(=O)[C@@H](NC(=O)/C(=N\OC(C)(C)C(=O)O)c4csc(N)n4)[C@H]3SC2)cc1.O=C(O)C(F)(F)F
HC50 [2]: > 1280 µg/mL
MIC (Staphylococcus aureus [7]): 32 µg/mL
MIC [8]: 8 µg/mL
MIC (Escherichia coli): 32 µg/mL
MIC (Enterococcus faecalis): 64 µg/mL

C[C@@H](O)[C@H]1C(=O)N2C(C(=O)O)=C(S[C@@H]3CN[C@H](C(=O)N(C)C)C3)[C@H](C)[C@H]12 [MEROPENEM]
HC50 [2]: > 1280 µg/mL
MIC [8]: 0.031 µg/mL (≈ 0.0808 µM)
MIC (Escherichia coli): 0.031 µg/mL (≈ 0.0808 µM)

CCCCCCNC(=O)c1cc[n+](CC2=C(C(=O)[O-])N3C(=O)[C@@H](NC(=O)/C(=N\OC)c4csc(N)n4)[C@H]3SC2)cc1.O=C(O)C(F)(F)F
HC50 [2]: > 1280 µg/mL
MIC (Staphylococcus aureus [7]): 2 µg/mL
MIC [8]: 2 µg/mL
MIC (Escherichia coli): 2 µg/mL
MIC (Enterococcus faecalis): 4 µg/mL

CCCCCCNC(=O)c1ccc[n+](CC2=C(C(=O)[O-])N3C(=O)[C@@H](NC(=O)/C(=N\OC)c4csc(N)n4)[C@H]3SC2)c1.O=C(O)C(F)(F)F
HC50 [2]: > 1280 µg/mL
MIC (Staphylococcus aureus [7]): 2 µg/mL
MIC [8]: 2 µg/mL
MIC (Escherichia coli): 4 µg/mL
MIC (Enterococcus faecalis): 4 µg/mL

CCCCNC(=O)c1cc[n+](CC2=C(C(=O)[O-])N3C(=O)[C@@H](NC(=O)/C(=N\OC)c4csc(N)n4)[C@H]3SC2)cc1.O=C(O)C(F)(F)F
HC50 [2]: > 1280 µg/mL
MIC (Staphylococcus aureus [7]): 4 µg/mL
MIC [8]: 1 µg/mL
MIC (Escherichia coli): 1 µg/mL
MIC (Enterococcus faecalis): 4 µg/mL

CCCCCCCCCCNC(=O)c1ccc[n+](CC2=C(C(=O)[O-])N3C(=O)[C@@H](NC(=O)/C(=N\OC)c4csc(N)n4)[C@H]3SC2)c1.O=C(O)C(F)(F)F
hemolysis at 1280 microg/ml [9]: 12.7%
HC50 [2]: > 1280 µg/mL
MIC (Staphylococcus aureus [7]): 0.5 µg/mL
MIC [8]: 8 µg/mL
MIC (Escherichia coli): 8 µg/mL
MIC (Enterococcus faecalis): 4 µg/mL

GENTAMICIN
Activity (Cell membrane [10]): inactive
Activity (Cell membrane [3]): inactive

CCCCNC(=O)c1ccc[n+](CC2=C(C(=O)[O-])N3C(=O)[C@@H](NC(=O)/C(=N\OC)c4csc(N)n4)[C@H]3SC2)c1.O=C(O)C(F)(F)F
HC50 [2]: > 1280 µg/mL
MIC (Staphylococcus aureus [7]): 2 µg/mL
MIC [8]: 0.5 µg/mL
MIC (Escherichia coli): 0.5 µg/mL
MIC (Enterococcus faecalis): 4 µg/mL

CC[C@H](C)[C@H](NC(=O)CN)C(=O)NCC(=O)N[C@@H](C)C(=O)N[C@H](C(=O)N[C@@H](CC(C)C)C(=O)N[C@@H](CCCCN)C(=O)N[C@H](C(=O)N[C@@H](CC(C)C)C(=O)N[C@H](C(=O)N[C@H](C(=O)NCC(=O)N[C@@H](CC(C)C)C(=O)N1CCC[C@H]1C(=O)N[C@@H](C)C(=O)N[C@@H](CC(C)C)C(=O)N[C@H](C(=O)N[C@@H](CO)C(=O)N[C@@H](Cc1c[nH]c2ccccc12)C(=O)N[C@H](C(=O)N[C@@H](CCCCN)C(=O)N[C@@H](CCCNC(=N)N)C(=O)N[C@@H](CCCCN)C(=O)N[C@@H](CCCNC(=N)N)C(=O)N[C@@H](CCC(N)=O)C(=O)N[C@@H](CCC(N)=O)C(N)=O)[C@@H](C)CC)[C@@H](C)CC)[C@@H](C)O)[C@@H](C)O)C(C)C)C(C)C [MELITTIN]
Activity (Cell membrane [11]): Active
inhibition (INH) (Staphylococcus aureus [12]): ~100%
Activity (Cell membrane [10]): Active
Activity (Cell membrane [3]): Active
MIC [8]: 8 µg/mL (≈ 2.81 µM)
Activity (Staphylococcus aureus [13]): Active
MIC (Enterococcus faecalis): 2 µg/mL (≈ 0.703 µM)

CCCCNC(=O)c1ccc[n+](CC2=C(C(=O)[O-])N3C(=O)[C@@H](NC(=O)/C(=N\OC(C)(C)C(=O)O)c4csc(N)n4)[C@H]3SC2)c1.O=C(O)C(F)(F)F
HC50 [2]: > 1280 µg/mL
MIC (Staphylococcus aureus [7]): 32 µg/mL
MIC [8]: 0.5 µg/mL
MIC (Escherichia coli): 1 µg/mL
MIC (Enterococcus faecalis): 128 µg/mL

CCCCCCCCCCNC(=O)c1cc[n+](CC2=C(C(=O)[O-])N3C(=O)[C@@H](NC(=O)/C(=N\OC(C)(C)C(=O)O)c4csc(N)n4)[C@H]3SC2)cc1.O=C(O)C(F)(F)F
HC50 [2]: > 1280 µg/mL
MIC (Staphylococcus aureus [7]): 32 µg/mL
MIC [8]: 128 µg/mL
MIC (Escherichia coli): 64 µg/mL
MIC (Enterococcus faecalis): > 128 µg/mL

CCCCCCCCNC(=O)c1ccc[n+](CC2=C(C(=O)[O-])N3C(=O)[C@@H](NC(=O)/C(=N\OC(C)(C)C(=O)O)c4csc(N)n4)[C@H]3SC2)c1.O=C(O)C(F)(F)F
HC50 [2]: > 1280 µg/mL
MIC (Staphylococcus aureus [7]): 32 µg/mL
MIC [8]: 16 µg/mL
MIC (Escherichia coli): 16 µg/mL
MIC (Enterococcus faecalis): 128 µg/mL

CC[C@H]1OC(=O)[C@H](C)[C@@H](O[C@H]2C[C@@](C)(OC)[C@@H](O)[C@H](C)O2)[C@H](C)[C@@H](O[C@@H]2O[C@H](C)C[C@H](N(C)C)[C@H]2O)[C@](C)(O)C[C@@H](C)C(=O)[C@H](C)[C@@H](O)[C@]1(C)O [ERYTHROMYCIN]
MIC50 (Staphylococcus aureus [14]): > 128 µg/mL

CC(C)(O/N=C(\C(=O)N[C@@H]1C(=O)N2C(C(=O)[O-])=C(C[n+]3ccccc3)CS[C@H]12)c1csc(N)n1)C(=O)O [CEFTAZIDIME]
HC50 [2]: > 1280 µg/mL
MIC (Staphylococcus aureus [7]): 16 µg/mL (≈ 29.3 µM)
MIC [8]: 0.063 µg/mL (≈ 0.115 µM)
MIC (Escherichia coli): 0.063 µg/mL (≈ 0.115 µM)
MIC (Enterococcus faecalis): 128 µg/mL (≈ 234 µM)

CO/N=C(\C(=O)N[C@@H]1C(=O)N2C(C(=O)[O-])=C(COC(C)=O)CS[C@H]12)c1csc(N)n1.[Na+] [CEFOTAXIME SODIUM]
inhibition (INH) (Staphylococcus aureus [12]): ~100%
HC50 [2]: > 1280 µg/mL
MIC (Staphylococcus aureus [7]): 1 µg/mL
MIC [8]: 2 µg/mL
Activity (Staphylococcus aureus [13]): Active
MIC (Escherichia coli): 2 µg/mL
MIC (Enterococcus faecalis): 16 µg/mL
